According to publication PMC12479633, “A Phase IIa, Single-Blind, Placebo-Controlled, Parallel-Group Study to Assess Safety, Tolerability, and Pharmacokinetics/Pharmacodynamics of Brensocatib in Adults with Cystic Fibrosis” (Clinical Pharmacokinetics, 2025):
Like-named read-outs stand apart in the source and are kept apart here.

Columns and labels:
[1] = Plasma pharmacokinetics of brensocatib in adults with CF, once-daily oral dosing for 28 days (noncompartmental analysis); format: in vivo, human; conditions: human, plasma, oral
Procedure: This was a phase IIa, single-blind, randomized, placebo-controlled trial with a parallel-group, multiple-dose design aimed at evaluating the PK, PD, safety, and tolerability of brensocatib in adults with CF (NCT05090904).
Participants were assigned to receive a once-daily dose of brensocatib (10 mg, 25 mg, or 40 mg) or placebo for 28 days.
Plasma PK samples were collected on days 1 (at predose and 0.5, 1, 2, 4, 6, 8, and 24 h postdose), 14 (at predose and 2 h postdose), and 28 (at predose and 0.5, 1, 2, 4, 6, 8, 24, and 168 h postdose). The concentration of brensocatib in the plasma samples was analyzed using a validated liquid chromatography with tandem mass spectrometry method at an external service provider with a quantification range of 0.25–150 ng/mL. The overall intra- and inter-batch precision and accuracy were −2.7 to 2.0% and −1.8 to 0.8%, respectively. The long-term stability was established in human plasma for 346 days at −70 °C. The validation method details were published internally and stored within Insmed’s internal document repository.
Descriptive statistics for continuous variables were calculated. Categorical variables were summarized by counts and by percentage of participants in the corresponding categories. No formal hypothesis was tested. Changes from baseline values were calculated and presented for both safety and efficacy data at each visit, including the percent change from baseline. PK parameters for brensocatib were assessed using noncompartmental analysis via Phoenix® WinNonlin® version 8.2 or later. SAS version 9.4 or higher was employed to prepare PK outputs.
Analysis of dose dependency for brensocatib Cmax, AUC0–24, and area under the concentration–time curve from time 0 to last measurable concentration (AUClast) after single-dose administration and at steady state (day 28) were performed using a power law model. Dose normalization of Cmax, AUC0–24, and AUClast was performed only when a linear and dose-dependent trend was observed.

[2] = parameters: method as in PMID 39574348; conditions: single dose, cited from earlier work
P-glycoprotein (P-gp) = test system: P-glycoprotein (P-gp); parameters: method as in PMID 35411669; conditions: cited from earlier work
neutrophil elastase (NE) = assay: Active NE in blood (white blood cell pellets) of adults with CF; format: in vivo, human; conditions: for NE, median % reduction relative to baseline: Blood, day 29
Procedure: Blood PD samples were collected at screening; predose on days 1, 2, 14, 28, and 29; and at the follow-up visit (day 35). The samples were analyzed at an external service provider to determine the concentrations of active NE, PR3, and CatG in white blood cell pellets using validated enzymatic methods with quantification limits of 87.9 ng/mL for NE and PR3 and 70.3 ng/mL for CatG. The fit-for-purpose methods details were published internally and stored within Insmed’s document repository.
If a participant experienced an intercurrent event, defined as use of antibiotics during an acute event that could influence NSP levels, the data were not included in the PD analysis. In assessing treatment-emergent adverse events (TEAEs), the “while-on-treatment” strategy was implemented, which encompassed the 28-day period following the final dose of study drug. With this strategy, data collected prior to the occurrence of the intercurrent event, that is, to discontinuation of brensocatib, were included in the analysis.

[3] = parameters: method as in PMID 40267423; conditions: NCFBE, ASPEN, cited from earlier work
[4] = 10 mg QD, Day 28, n = 8, mean (CV%)
[5] = 25 mg QD, Day 28, n = 7, mean (CV%)
[6] = 40 mg QD, Day 28, n = 8, mean (CV%)

## Cn1c(=O)oc2ccc(-c3ccc(C[C@@H](C#N)NC(=O)[C@@H]4CNCCCO4)cc3)cc21 [Brensocatib]
[1]; 10 mg, 10 mg QD, Day 28, n = 8, mean (CV%), read-out: AUClast
  AUC(0-t): 2380 ng·h/mL
[1]; 25 mg, 25 mg QD, Day 1, n = 8, mean (CV%), read-out: AUC0–24
  AUC(0-t): 1630 ng·h/mL
[1]; 25 mg, 25 mg QD, Day 1, n = 8, mean (CV%), read-out: AUClast
  AUC(0-t): 1630 ng·h/mL
[1]; 25 mg, 25 mg QD, Day 28, n = 7, mean (CV%), read-out: AUC0–24
  AUC(0-t): 3800 ng·h/mL
[1]; 25 mg, 25 mg QD, Day 28, n = 7, mean (CV%), read-out: AUClast
  AUC(0-t): 8930 ng·h/mL
[1]; 25 mg, 25 mg QD, Day 28, n = 7, mean (CV%), read-out: Cmax
  Cmax: 249 ng/mL
[1]; 40 mg, 40 mg QD, Day 1, n = 8, mean (CV%), read-out: AUC0–24
  AUC(0-t): 3690 ng·h/mL
[1]; 40 mg, 40 mg QD, Day 1, n = 8, mean (CV%), read-out: AUClast
  AUC(0-t): 3690 ng·h/mL
[1]; 40 mg, 40 mg QD, Day 1, n = 8, mean (CV%), read-out: Cmax
  Cmax: 342 ng/mL
[1]; 40 mg, 40 mg QD, Day 28, n = 8, mean (CV%), read-out: AUC0–24
  AUC(0-t): 6320 ng·h/mL
[1]; 40 mg, 40 mg QD, Day 28, n = 8, mean (CV%), read-out: AUClast
  AUC(0-t): 15300 ng·h/mL
[1]; 40 mg, 40 mg QD, Day 28, n = 8, mean (CV%), read-out: Cmax
  Cmax: 490 ng/mL
[1]; day 1, CFTR modulator stratum, 10-40 mg QD, read-out: mean AUC0–24 across brensocatib dose groups
  AUC(0-t): 798 to 4120 ng·h/mL
[1]; day 1, CFTR modulator stratum, 10-40 mg QD, read-out: mean AUClast across brensocatib dose groups
  AUC(0-t): 798 to 4120 ng·h/mL
[1]; day 1, CFTR modulator stratum, 10-40 mg QD, read-out: mean Cmax across brensocatib dose groups
  Cmax: 60.9 to 365 ng/mL
[1]; day 1, non-CFTR modulator stratum, 10-40 mg QD, read-out: mean AUC0–24 across brensocatib dose groups
  AUC(0-t): 1120 to 2400 ng·h/mL
[1]; day 1, non-CFTR modulator stratum, 10-40 mg QD, read-out: mean AUClast across brensocatib dose groups
  AUC(0-t): 1120 to 2400 ng·h/mL
[1]; day 1, non-CFTR modulator stratum, 10-40 mg QD, read-out: mean Cmax across brensocatib dose groups
  Cmax: 86.4 to 274 ng/mL
[1]; day 28, CFTR modulator stratum, 10-40 mg QD, read-out: mean AUC0–24 across brensocatib dose groups
  AUC(0-t): 1080 to 7360 ng·h/mL
[1]; day 28, CFTR modulator stratum, 10-40 mg QD, read-out: mean AUClast across brensocatib dose groups
  AUC(0-t): 2440 to 17700 ng·h/mL
[1]; day 28, CFTR modulator stratum, 10-40 mg QD, read-out: mean Cmax across brensocatib dose groups
  Cmax: 92 to 538 ng/mL
[1]; day 28, non-CFTR modulator stratum, 10-40 mg QD, read-out: mean AUC0–24 across brensocatib dose groups
  AUC(0-t): 1190 to 3740 ng·h/mL
[1]; day 28, non-CFTR modulator stratum, 10-40 mg QD, read-out: mean AUClast across brensocatib dose groups
  AUC(0-t): 2210 to 9540 ng·h/mL
[1]; day 28, non-CFTR modulator stratum, 10-40 mg QD, read-out: mean Cmax across brensocatib dose groups
  Cmax: 84.3 to 348 ng/mL
[1]; [4]
  AUC(0-inf): 2430 ng·h/mL
  Vd/F: 423 L
[1]; 10 mg QD, Day 28, n = 8, mean (CV%), read-out: t1/2 (converted)
  half-life: 30 h
[1]; 10 mg QD, Day 28, n = 8, median (range), read-out: Tmax
  Tmax: 1.9 h
[1]; [5]
  AUC(0-inf): 9300 ng·h/mL
  Vd/F: 332 L
[1]; 25 mg QD, Day 28, n = 7, mean (CV%), read-out: t1/2 (converted)
  half-life: 33.1 h
[1]; [6]
  AUC(0-inf): 16200 ng·h/mL
  Vd/F: 398 L
[1]; 40 mg QD, Day 28, n = 8, mean (CV%), read-out: t1/2 (converted)
  half-life: 38.5 h
[1]; day 1 (after the first dose) and day 28 (steady state), across doses, read-out: median Tmax postdose
  Tmax: 1.5 to 2 h
[1]; range over CFTR modulator and non-CFTR modulator strata, read-out: elimination t1/2
  half-life: 24.7 to 49.5 h
[2]; adults with varying degrees of renal impairment
  tolerability: well tolerated
[2]
  effect of renal impairment on brensocatib elimination and exposure: not significantly affected
P-glycoprotein (P-gp)
  substrate status: substrate
Neutrophil elastase (NE); 10 mg QD, n = 6
  NE, median % reduction relative to baseline: 35.3 (n = 6) %
Neutrophil elastase (NE); 25 mg QD, n = 7
  NE, median % reduction relative to baseline: 56.4 (n = 7) %
Neutrophil elastase (NE); 40 mg QD, n = 7
  NE, median % reduction relative to baseline: 74.0 (n = 7) %
Neutrophil elastase (NE); over the dose range of 10–40 mg QD
  median percent reduction of NE activity in blood: 35–74%
[3]; 10 mg or 25 mg QD
  annualized rate of adjudicated pulmonary exacerbations compared with placebo: significantly reduced
[3]; 25 mg
  lung function decline (FEV1) over 52 weeks compared with placebo: significantly lower
